This passage reports GI50 results from US20250388575A1, “HETEROBIFUNCTIONAL COMPOUNDS AND METHODS OF TREATING DISEASE” (Halda Therapeutics OpCo, Inc., priority 2022, published 2025).

Assay [1] deals with T-Rex 293 cell line SC3 cells having increased expression of androgen receptor protein. The assay is described as follows: Cellular growth inhibition, T-Rex 293 SC3 cells with increased androgen receptor expression (doxycycline), CellTiter-Glo. The assay is classed as cell-based. To be noted: T-Rex 293 SC3 cells with increased androgen receptor expression (exposed to 10 ng/mL doxycycline), 72 hours, CellTiter-Glo; read-out: GI50. An outline of the steps:
(§1)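 SC3, a T-Rex 293 clone with doxycycline-inducible wild-type androgen receptor, was seeded in phenol red-free DMEM with 10% charcoal-dextran FBS, with or without 10 ng/mL doxycycline. Compound added at 24 h (0.5% DMSO) for 72 h at 37° C. CellTiter-Glo 2.0 luminescence; GI50 from four-parameter fit.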

The subject of assay [2] is T-Rex 293 cell line SC3 cells lacking increased expression of androgen receptor protein. The assay is described as follows: Cellular growth inhibition, T-Rex 293 SC3 cells lacking increased androgen receptor expression (no doxycycline), CellTiter-Glo. The assay is classed as cell-based. The settings on record: T-Rex 293 SC3 cells lacking increased androgen receptor expression (not exposed to doxycycline), 72 hours, CellTiter-Glo; read-out: GI50. An outline of the steps:
as §1

A further assay relates to VCaP cells. Nature of the assay: Cellular growth inhibition assay for VCaP cells, CellTiter-Glo. It counts as cell-based, human. To be noted: VCaP cells, 72 hours, CellTiter-Glo, read-out: GI50. An outline of the steps:
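GI50 values come from four-parameter curve fits of luminescence data normalized to a zero baseline. Compound, in medium with 0.5% DMSO, was added one day after plating and left for 72 h before CellTiter-Glo 2.0 addition.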

For the next assay, the system named is T47D cells. The assay is described as follows: Cellular growth inhibition assay for T47D cells, CellTiter-Glo. The assay is classed as cell-based, human. To be noted: 72 hours treatment, CellTiter-Glo 2.0. How it is done:
T47D cells were purchased from American Type Cell Culture (ATCC Cat #HTB-133) and then seeded on poly-D-lysine coated, black clear-bottom 384-well plates at 3000/well in 25 μL Dulbecco's Modified Eagle Medium (DMEM) supplemented with 10% w/w Fetal bovine serum (FBS), 0.2 units/mL recombinant human insulin (Gibco Cat #12585014), and 1% w/w Pen-Strep. Pen-Strep is a commercially available mixture of penicillin G and streptomycin, which is used in mammalian cell culture media to prevent bacterial contamination. Dulbecco's Modified Eagle Medium (DMEM) supplemented with 10% w/w fetal bovine serum (FBS), 0.2 units/mL recombinant human insulin, and 1% w/w Pen-Strep is herein referred to as Treatment Medium. Following seeding of cells in the plates, the plates were spun at 300×g for 30 seconds, then equilibrated to room temperature for 30 minutes, and then deposited in a humidified tissue culture incubator maintained at 37° C. with 5% CO2.
At 24 hours after seeding of the cells, dilutions of test compound were prepared in DMSO and dissolved in Treatment Medium, to achieve a final DMSO concentration of 0.5% w/w, thereby providing the Test Compound Solution. A 25 μL aliquot of the Test Compound Solution was added to cells in the well plates. An equal volume of a solution containing DMSO and Treatment Medium was used as a negative control. Following treatment of cells with Test Compound Solution or said equal volume of a solution containing DMSO and Treatment Medium, the plates were spun at 300×g for 30 seconds, and then left in an incubator for 72 hours.
At the end of the treatment duration, cell viability was quantified with CellTiter-Glo 2.0 reagent (Promega Cat #G9243). For this purpose, plates were equilibrated to room temperature for 30 minutes, and then 25 μL of CellTiter-Glo 2.0 reagent was added to cells in the plate wells. Plates were then agitated on a shaker for two minutes at 500 rpm and subsequently incubated at room temperature for 10 minutes. Following incubation, the plates were spun at 3000×g for 30 seconds, then sealed with an optical adhesive cover, and luminescence readings were measured with an EnVision Plate Reader (Perkin Elmer).
Data was normalized using zero luminescence for baseline. A four-parameter non-linear regression curve fit was applied to dose-response data in GraphPad Prism data analysis software to determine the half-maximal growth inhibitory concentration (GI50) for each test compound.

Read-outs that look alike come from different tables or passages of the source. Some results are limits rather than exact numbers.

Consider `CCS(=O)(=O)c1ccc(Oc2cccc(CCCOC3CC4(C3)CN(c3cnc(C(=O)N[C@H]5CC[C@H](Oc6ccc(C#N)c(Cl)c6)CC5)cn3)C4)c2F)c(-c2cn(C)c(=O)c3[nH]ccc23)c1` [I-48], for which the 50% growth inhibitory concentration (GI50) in assay [1] is under 500 nM; in assay [2] it was under 500 nM; with VCaP cells (Homo sapiens), 500 to 1500 nM; with T47D cells (Homo sapiens), under 500 nM.

Turning to `Cn1cc(-c2cc(C(C)(C)O)ccc2Oc2ccc(N3CC(OC4CN(c5ccc(C(=O)N[C@H]6CC[C@H](Oc7ccc(C#N)c(Cl)c7)CC6)nn5)C4)C3)cc2)c2cc[nH]c2c1=O` [I-150], the GI50 (in assay [1]; in assay [2]; with VCaP cells (Homo sapiens); in the assay with T47D cells (Homo sapiens)) was under 500 nM in each case.

Consider `Cn1cc(-c2cc(C(C)(C)O)ccc2Oc2ccc(CCCC3C4CN(c5ccc(C(=O)N[C@H]6CC[C@H](Oc7ccc(C#N)c(Cl)c7)CC6)nn5)CC34)cc2)c2cc[nH]c2c1=O` (stereo partly shown) [I-128], for which the concentration for 50% growth inhibition (GI50) (in assay [1]; in assay [2]; with VCaP cells; in the assay on T47D cells) was under 500 nM throughout.

For the compound `CCS(=O)(=O)c1ccc(Oc2ccc(CC3CC4(CCN(c5ccc(C(=O)N[C@H]6CC[C@H](Oc7ccc(C#N)c(Cl)c7)CC6)nn5)CC4)C3)c(F)c2)c(-c2cn(C)c(=O)c3[nH]ccc23)c1` [I-81], the GI50 (in assay [1]; in assay [2]; with VCaP cells (Homo sapiens); with T47D cells (Homo sapiens)) was under 500 nM each time.

With `C=CC1CN(c2ccc(C(=O)N[C@H]3CC[C@H](Oc4ccc(C#N)c(Cl)c4)CC3)nn2)CC1c1ccc(Oc2ccc(S(=O)(=O)CC)cc2-c2cn(C)c(=O)c3[nH]ccc23)cc1` (stereo partly shown) [I-87], the GI50 in assay [1] was under 500 nM; in assay [2], 500 to 1500 nM; in the assay on VCaP cells, under 500 nM; with T47D cells, under 500 nM.

For `CCS(=O)(=O)c1ccc(C(F)(F)c2ccc(CCC3CCN(c4ccc(C(=O)NC5CCC(Oc6ccc(C#N)c(Cl)c6)CC5)nn4)CC3)cc2)c(-c2cn(C)c(=O)c3[nH]ccc23)c1` (stereo not shown) [I-251, N-((1r,4r)-4-(3-chloro-4-cyanophenoxy)cyclohexyl)-6-(4-(4-((4-(ethylsulfonyl)-2-(6-methyl-7-oxo-6,7-dihydro-1H-pyrrolo[2,3-c]pyridin-4-yl)phenyl)difluoromethyl)phenethyl)piperidin-1-yl)pyridazine-3-carboxamide], the GI50 was under 500 nM in assay [1], over 3000 nM in assay [2], over 3000 nM with VCaP cells and under 500 nM in the assay with T47D cells.

As for `Cn1cc(-c2cc(S(C)(=O)=O)ccc2Oc2cccc(CCCC3CCN(c4ncc(C(=O)N[C@H]5CC[C@H](Oc6ccc(C#N)c(Cl)c6)CC5)cn4)CC3)c2)c2cc[nH]c2c1=O` [I-233], the GI50 (in assay [1]; in assay [2]; in the assay with VCaP cells; in the assay on T47D cells) was under 500 nM each time.

In the case of `Cn1cc(-c2cc(C(C)(C)O)ccc2Oc2ccc(C3CN(C4CCN(c5ccc(C(=O)N[C@H]6CC[C@H](Oc7ccc(C#N)c(Cl)c7)CC6)nn5)CC4)C3)cc2)c2cc[nH]c2c1=O` [I-254], the GI50 in assay [1] was under 500 nM; in assay [2], 500 to 1500 nM; with VCaP cells (Homo sapiens), under 500 nM; in the assay with T47D cells (Homo sapiens), 1500 to 3000 nM.

As for `CCS(=O)(=O)c1ccc(Oc2ccc(CN3CCC4(CCN(c5ccc(C(=O)N[C@H]6CC[C@H](Oc7ccc(C#N)c(Cl)c7)CC6)nn5)C4)C3)c(F)c2)c(-c2cn(C)c(=O)c3[nH]ccc23)c1` (stereo partly shown) [I-75], the GI50 (in assay [1]; in assay [2]; in the assay with VCaP cells (Homo sapiens); with T47D cells (Homo sapiens)) was under 500 nM throughout.

As for `Cn1cc(-c2cc(C(C)(C)O)ccc2Oc2ccc(CCC3CC4(C3)CN(c3ccc(C(=O)N[C@H]5CC[C@H](Oc6ccc(C#N)c(Cl)c6)CC5)nn3)C4)cc2)c2cc[nH]c2c1=O` [I-126], the GI50 (in assay [1]; in assay [2]; in the assay with VCaP cells; with T47D cells) was under 500 nM in each case.

On to `CCS(=O)(=O)Cc1ccc(Oc2ccc(CCCCC3CCN(c4ccc(C(=O)N[C@H]5CC[C@H](Oc6ccc(C#N)c(Cl)c6)CC5)nn4)CC3)cc2)c(-c2cn(C)c(=O)c3[nH]ccc23)c1` [I-157], for which the GI50 (in assay [1]; in assay [2]; in the assay with VCaP cells; in the assay with T47D cells) was under 500 nM each time.

In the case of `Cn1cc(-c2cc(S(=O)(=O)C3CC3)ccc2Oc2ccc(CCC3CCN(c4ccc(C(=O)N[C@H]5CC[C@H](Oc6ccc(C#N)c(Cl)c6)CC5)nn4)CC3)cc2)c2cc[nH]c2c1=O` [I-76], the GI50 (in assay [1]; in assay [2]; with VCaP cells; in the assay with T47D cells) was under 500 nM throughout.

For `CN(CCCc1ccc(Oc2ccc(C(C)(C)O)cc2-c2cn(C)c(=O)c3[nH]ccc23)cc1)c1ccc(C(=O)N[C@H]2CC[C@H](Oc3ccc(C#N)c(Cl)c3)CC2)nn1` [I-105], the GI50 in assay [1] is under 500 nM; in assay [2], under 500 nM; with VCaP cells, under 500 nM; with T47D cells, 1500 to 3000 nM.

Regarding `Cn1cc(-c2cc(C(C)(C)O)ccc2Oc2ccc(CC3CN(c4ccc(C(=O)N[C@H]5CC[C@H](Oc6ccc(C#N)c(Cl)c6)CC5)nn4)C3)cc2)c2cc[nH]c2c1=O` [I-131], the GI50 (in assay [1]; in assay [2]; in the assay on VCaP cells (Homo sapiens); in the assay with T47D cells (Homo sapiens)) was under 500 nM in each case.

Consider `Cn1cc(-c2cc(C(C)(C)O)ccc2Oc2cc(F)c(CCC3CCN(c4ccc(C(=O)N[C@H]5CC[C@H](Oc6ccc(C#N)c(Cl)c6)CC5)nn4)CC3)c(F)c2)c2cc[nH]c2c1=O` [I-114], for which the GI50 is under 500 nM in assay [1], over 3000 nM in assay [2], under 500 nM in the assay on VCaP cells and 1500 to 3000 nM in the assay on T47D cells.

As for `CCS(=O)(=O)Nc1ccc(Oc2cccc(CCC3CCN(c4ccc(C(=O)N[C@H]5CC[C@H](Oc6ccc(C#N)c(Cl)c6)CC5)nn4)CC3)c2F)c(-c2cn(C)c(=O)c3[nH]ccc23)c1` [I-21], the 50% growth inhibitory concentration (GI50) in assay [1] is under 500 nM; in assay [2], over 3000 nM; with VCaP cells (Homo sapiens), under 500 nM; with T47D cells (Homo sapiens), under 500 nM.

With `CCS(=O)(=O)c1ccc(Oc2ccc(CN3CC4(C3)CN(c3ccc(C(=O)N[C@H]5CC[C@H](Oc6ccc(C#N)c(Cl)c6)CC5)nn3)C4)c(F)c2)c(-c2cn(C)c(=O)c3[nH]ccc23)c1` [I-74], the GI50 (in assay [1]; in assay [2]; in the assay on VCaP cells (Homo sapiens); in the assay on T47D cells (Homo sapiens)) was under 500 nM in each case.

Consider `Cn1cc(-c2cc(N3CCCCS3(=O)=O)ccc2Oc2ccc(CCC3CCN(c4ccc(C(=O)NC5CCC(Oc6ccc(C#N)c(Cl)c6)CC5)nn4)CC3)cc2)c2cc[nH]c2c1=O` (stereo not shown) [I-246, N-[4-(3-chloro-4-cyano-phenoxy)cyclohexyl]-6-[4-[2-[4-[4-(1,1-dioxothiazinan-2-yl)-2-(6-methyl-7-oxo-1H-pyrrolo[2,3-c]pyridin-4-yl)phenoxy]phenyl]ethyl]-1-piperidyl]pyridazine-3-carboxamide], for which the GI50 (in assay [1]; in assay [2]; in the assay with VCaP cells; with T47D cells) was under 500 nM throughout.

On to `CCS(=O)(=O)c1ccc(Oc2ccc(CCC3CCN(c4ccc(C(=O)N[C@H]5CC[C@H](Oc6ccc(C#N)c(Cl)c6)CC5)nn4)CC3)c(C(F)(F)F)c2)c(-c2cn(C)c(=O)c3[nH]ccc23)c1` [I-85], for which the GI50 (in assay [1]; in assay [2]; with VCaP cells; with T47D cells) was under 500 nM throughout.
